Test results reported in the supplement of paper PMC10307832.

Columns and labels:
Test in all cases: relative viability (nuclei count vs DMSO), 5 days (fraction); higher = more cells survive
[1] = compound: C1COCCN1C2=NC(=NC3=C2OC4=C3C=CC=N4)C5=CC(=CC=C5)NC(=O)C6=CN=C(C=C6)N + Cc1cc(Nc2cc(N3CCN(C)CC3)nc(Sc3ccc(NC(=O)C4CC4)cc3)n2)n[nH]1 [Tozasertib] (partner 0.1 µM)
In short: (§1)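 Lung cancer cell lines were pin-tool dosed in 1536-well plates on the day after seeding, with either a lone drug or a fixed anchor-drug dose plus five library-drug doses (not always all listed) in √10 steps. Nuclei were counted on 4× images after 5 days. Relative viability is the ratio of treated-well to vehicle-well nuclei counts, with each value a median of duplicate plates.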

Entinostat + Pictilisib = compound: Nc1ccccc1NC(=O)c1ccc(CNC(=O)OCc2cccnc2)cc1 [Entinostat] + CS(=O)(=O)N1CCN(Cc2cc3nc(-c4cccc5[nH]ncc45)nc(N4CCOCC4)c3s2)CC1 [Pictilisib] (partner 1 µM)
In short: as §1

Entinostat + Olaparib = compound: Nc1ccccc1NC(=O)c1ccc(CNC(=O)OCc2cccnc2)cc1 [Entinostat] + O=C(c1cc(Cc2n[nH]c(=O)c3ccccc23)ccc1F)N1CCN(C(=O)C2CC2)CC1 [Olaparib] (partner 8 µM)
In short: as §1

Entinostat + Bortezomib = compound: Nc1ccccc1NC(=O)c1ccc(CNC(=O)OCc2cccnc2)cc1 [Entinostat] + CC(C)C[C@H](NC(=O)[C@H](Cc1ccccc1)NC(=O)c1cnccn1)B(O)O [Bortezomib] (partner 0.002 µM)
In short: as §1

Cell Line	relative viability ([1]; first compound 0.02 µM)	relative viability ([1]; first compound 0.06325 µM)	relative viability ([1]; first compound 0.2 µM)	relative viability ([1]; first compound 0.6325 µM)	relative viability ([1]; first compound 2 µM)	relative viability (Entinostat + Pictilisib; first compound 0.02 µM)	relative viability (Entinostat + Pictilisib; first compound 0.06325 µM)	relative viability (Entinostat + Pictilisib; first compound 0.2 µM)	relative viability (Entinostat + Pictilisib; first compound 0.6325 µM)	relative viability (Entinostat + Pictilisib; first compound 2 µM)	relative viability (Entinostat + Olaparib; first compound 0.02 µM)	relative viability (Entinostat + Olaparib; first compound 0.06325 µM)	relative viability (Entinostat + Olaparib; first compound 0.2 µM)	relative viability (Entinostat + Olaparib; first compound 0.6325 µM)	relative viability (Entinostat + Olaparib; first compound 2 µM)	relative viability (Entinostat + Bortezomib; first compound 0.02 µM)	relative viability (Entinostat + Bortezomib; first compound 0.06325 µM)	relative viability (Entinostat + Bortezomib; first compound 0.2 µM)	relative viability (Entinostat + Bortezomib; first compound 0.6325 µM)	relative viability (Entinostat + Bortezomib; first compound 2 µM)
NCI-H441	0.609	0.496	0.416	0.401	0.299	0.369	0.429	0.402	0.208	0.172	0.625	0.467	0.317	0.18	0.113	0.443	0.598	0.409	0.181	0.118
COR-L 105	0.325	0.352	0.329	0.359	0.31	0.414	0.425	0.38	0.346	0.262	0.683	0.825	0.773	0.483	0.407	0.608	0.914	0.926	0.484	0.313
NCI-H2009	0.8	0.749	0.726	0.655	0.433	0.811	0.941	0.882	0.73	0.546	0.673	0.695	0.639	0.486	0.434	1.03	1.05	0.912	0.814	0.497
PC-14	0.593	0.651	0.566	0.486	0.307	0.602	0.516	0.5	0.189	0.0672	0.291	0.294	0.321	0.104	0.0475	0.833	0.949	0.909	0.331	0.128
NCI-H2085	0.667	0.826	0.691	0.456	0.463	0.477	0.388	0.378	0.382	0.403	0.755	0.726	0.717	0.592	0.378	1.03	1.12	1.04	0.683	0.604
NCI-H2347	0.513	0.711	0.42	0.544	0.387	0.494	0.321	0.333	0.216	0.345	0.636	0.537	0.455	0.35	0.32	0.969	1.01	0.557	0.318	0.262
ABC-1	0.177	0.183	0.167	0.406	0.222	0.668	1.07	0.7	0.452	0.279	0.508	1.11	0.758	0.993	1.07	0.338	0.327	0.331	0.216	0.277
201T	0.959	1.04	0.915	0.913	0.452	0.708	0.662	0.625	0.532	0.467	0.838	0.775	0.694	0.489	0.459	1.09	1.11	1.05	1.01	0.872
